In patent US12703836B2, “Mixture of compounds with high molecular weights, obtained from sugar cane wax (Saccharum officinarum L.)” (CENTRO NACIONAL DE INVESTIGACIONES CIENTÍFICAS, priority 2021, dated 2026):

System: rabbits with spinal cord damage induced by Ischemia/Reperfusion (I/R)
Test: Mortality in spinal cord ischemia/reperfusion
Type: in vivo, New Zealand rabbits
Details: oral for 10 days: HMWS 200, AcGS 132, AlcG 40, AldG 28, AcGL 200, ASA 2 mg/kg, positive control 80
Protocol: The neuroprotective effect of the HMWS mixture, object of the present invention, was also investigated using an experimental model of induction of ischemia in the spinal cord. The composition obtained in example 2 was subjected to a preclinical test in which its pharmacological effect was compared with the effects of pure extracts of Fatty Acids in the form of Salts (AcGS), fatty alcohols (AlcG) and high molecular weight aldehydes (AldG), which were administered at doses equivalent to that of those respective substances in 200 mg/kg of the HMWS Active Ingredient. Furthermore, the effect of HMWS was compared with that of pure extract of free fatty acids (AcGL) administered at equal doses.
Male New Zealand rabbits (1.8-2.2 kg) were used, which were adapted for 15 days to laboratory conditions (temperature of 20 to 25° C., relative humidity of 60±5%, light/dark cycles of 12 hours), with free access to water and food.
The substances HMWS, AcGS, AlcG, AldG, AcGL and aspirin were prepared as suspensions in an acacia/water vehicle (1%). […]
For the induction of ischemia in the spinal cord, the rabbits were anesthetized with thiopental (20 mg/kg i.v.). […] At 4 and 24 hours of reperfusion, the neurological deficit of the animals was blindly evaluated by 2 independent observers (according to Zivin et al., 1982). […]

In the case of CC(=O)Oc1ccccc1C(=O)O [ASA, aspirin], the “Mortality 24 h (%)” value is reported as 40+ %.
